Key:
SaSiaT = SaSiaT (Staphylococcus aureus, UniProt A0A0H2XJ46); assay: nanoDSF thermal shift assay, SaSiaT; assay type: binding; conditions: for Average 1 / Average 2 / Average 3 / Replicate 1 / Replicate 2 / Replicate 3: SaSiaT Tm; for Average 1: average of experiment 1; for Average 2: average of experiment 2; for Average 3: average of experiment 3; for Replicate 1: experiment 1, second capillary; for Replicate 1 / Replicate 2 / Replicate 3 / Tm 1 / Tm2 / Tm 3 / Overall average (Tm): 1.25 mM; for Replicate 2: experiment 2, second capillary; for Replicate 3: experiment 3, second capillary; for Tm 1 / Tm2 / Tm 3 / Overall average (Tm): SaSiaT; for Tm 1: experiment 1, first capillary; for Tm2: experiment 2, first capillary; for Tm 3: experiment 3, first capillary; for Overall average (Tm): three experiments
Chain of SaSiaT (A0A0H2XJ46 entry or part of it): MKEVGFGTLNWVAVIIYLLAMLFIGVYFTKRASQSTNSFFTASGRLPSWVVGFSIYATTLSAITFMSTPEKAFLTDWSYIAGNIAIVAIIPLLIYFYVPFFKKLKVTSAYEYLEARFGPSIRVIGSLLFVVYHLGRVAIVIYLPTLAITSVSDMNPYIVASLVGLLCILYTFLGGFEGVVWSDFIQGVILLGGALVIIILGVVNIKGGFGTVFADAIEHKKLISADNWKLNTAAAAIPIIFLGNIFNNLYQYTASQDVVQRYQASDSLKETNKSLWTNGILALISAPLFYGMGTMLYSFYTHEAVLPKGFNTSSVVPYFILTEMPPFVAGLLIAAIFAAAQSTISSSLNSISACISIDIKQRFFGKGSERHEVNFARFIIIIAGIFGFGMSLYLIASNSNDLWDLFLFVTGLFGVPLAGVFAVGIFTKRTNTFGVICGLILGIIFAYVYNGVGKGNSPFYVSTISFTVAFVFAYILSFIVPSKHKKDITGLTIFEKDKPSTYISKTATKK
In short: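 Protein at 2 μM in PBS with 0.0174% (w/v) DDM and ligand at 1.25 mM were heated from 25 to 95 °C at 1 °C/min, with 330/350 nm fluorescence ratio and its first derivative giving Tm. ΔTm is relative to the Neu5Ac Tm, averaged over 3 experiments with 2 capillaries each.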

PmSiaT = target: T1, PmSiaT (Proteus mirabilis, UniProt B4EZY7); assay: [3H]Neu5Ac efflux in proteoliposomes, PmSiaT; assay type: biochemical; conditions: 0.1 mM external compound
T1 construct: made in house
T1 sequence (B4EZY7 1-496): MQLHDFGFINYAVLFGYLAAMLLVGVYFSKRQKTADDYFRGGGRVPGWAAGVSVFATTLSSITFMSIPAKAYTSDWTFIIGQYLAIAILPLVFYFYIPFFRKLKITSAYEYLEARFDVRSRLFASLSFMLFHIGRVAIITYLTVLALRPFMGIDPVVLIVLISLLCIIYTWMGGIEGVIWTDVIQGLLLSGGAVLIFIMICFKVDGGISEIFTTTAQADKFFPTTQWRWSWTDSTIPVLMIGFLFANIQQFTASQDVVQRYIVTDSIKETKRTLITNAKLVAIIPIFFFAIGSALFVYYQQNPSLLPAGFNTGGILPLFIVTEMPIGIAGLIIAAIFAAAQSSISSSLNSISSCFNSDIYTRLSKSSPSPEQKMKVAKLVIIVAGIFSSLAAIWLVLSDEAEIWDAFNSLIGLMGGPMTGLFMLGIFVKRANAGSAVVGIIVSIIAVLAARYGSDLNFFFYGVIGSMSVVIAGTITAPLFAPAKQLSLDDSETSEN
Protocol: Figure 5 Kinetic analysis of the inhibition of recombinant SiaT from P. mirabilis (A,B) and S. aureus (C,D) reconstituted in proteoliposomes and [^3H]Neu5Ac efflux in proteoliposomes (E,F). (a–d) Data were plotted according to Lineweaver–Burk as a reciprocal transport rate vs reciprocal Neu5Ac concentration. The transport rate was measured, in 5 min, by adding [^3H] Neu5Ac at the indicated concentrations to proteoliposomes containing 20 mM K^+-gluconate in the presence of valinomycin as described in the Supporting Information. [(A,B) P. mirabilis SiaT]; (A) compound 3f 0.25 μM (●) or 0.75 μM (□) was added in comparison to samples without inhibitor (○). (B) Compound 3e 12 μM (●) or 40 μM (□) was added in comparison to samples without an inhibitor (○). [(C,D) S. aureus SiaT]. (C) Compound 3f 80 μM (●) or 200 μM (□) was added in comparison to samples without an inhibitor (○). (D) Compound 3e 5 μM (●) or 12 μM (□) was added in comparison to samples without an inhibitor (○). Results are mean ± s.d. from four independent experiments (n = 4). […] Data are calculated as the percent of residual activity with respect to the control sample (efflux time zero). The results are the means ± s.d. of three independent experiments. […]
For uptake experiments, 600 μL of proteoliposomes were loaded onto a Sephadex G-75 column (0.7 cm diameter × 15 cm height), pre-equilibrated with 20 mM Hepes Tris pH 7.0 with 40 mM sucrose to balance the internal osmolarity. […] For kinetic measurement, the initial transport rate was measured by stopping the reaction after 5 min, that is, within the initial linear range of [^3H]-Neu5Ac uptake into the proteoliposomes previously described. […] In both uptake and efflux experiments, the transport assay was terminated by loading each proteoliposome sample (100 μL) on a Sephadex G-75 column (0.6 cm diameter × 8 cm height) to remove the external radioactivity. Proteoliposomes were eluted with 1 mL of 50 mM NaCl and collected in a 4 mL of scintillation mixture, vortexed and counted. […]

Row | Compound | Average 1 (SaSiaT) [°C] | Average 2 (SaSiaT) [°C] | Average 3 (SaSiaT) [°C] | Replicate 1 (SaSiaT) [°C] | Replicate 2 (SaSiaT) [°C] | Replicate 3 (SaSiaT) [°C] | Tm 1 (SaSiaT) [°C] | Tm2 (SaSiaT) [°C] | Tm 3 (SaSiaT) [°C] | Overall average (Tm) (SaSiaT) [°C] | [3H]Neu5Ac efflux induced (PmSiaT) | ΔTm (SaSiaT; nanoDSF, relative to Neu5Ac, ligand 1.25 mM, <−5 °C nonbinder) [°C]
1 | CC(=O)NC1C(OCc2ccccc2)CC(O)(C(=O)O)OC1C(O)C(O)CO (centres unmarked) [Compound 3a] | 56.2 | 55.7 | 56.3 | 56.1 | 55.8 | 56.1 | 56.2 | 55.7 | 56.6 | 56.1 |  | 
2 | CC(=O)NC1C(OCc2cc(F)cc(F)c2)CC(O)(C(=O)O)OC1C(O)C(O)CO (centres unmarked) [Compound 3e] | 57.3 | 56.7 | 57.1 | 57.3 | 56.7 | 56.9 | 57.3 | 56.6 | 57.2 | 57.0 | did not cause any [^3H]Neu5Ac efflux | 
3 | CC(=O)NC1C(OCc2cc(Br)cc(Br)c2)CC(O)(C(=O)O)OC1C(O)C(O)CO (centres unmarked) [Compound 3f] | 53.1 | 54.0 | 54.4 | 53.1 | 54.0 | 54.3 | 53.1 | 54.0 | 54.4 | 53.8 | did not cause any [^3H]Neu5Ac efflux | 2.6 ± 0.7
4 | CC(=O)N[C@H]1[C@H]([C@H](O)[C@H](O)CO)OC(O)(C(=O)O)C[C@@H]1O (some centres unmarked) [Neu5Ac, 5-N-acetyl neuraminic acid, reference compound] | 51.3 | 51.1 | 51.3 | 51.4 | 51.4 | 51.0 | 51.3 | 50.9 | 51.6 | 51.2 | slow but measurable counter flow | 

Reference: paper PMC9295122, “Sialic Acid Derivatives Inhibit SiaT Transporters and Delay Bacterial Growth” (ACS Chemical Biology, 2022)
